Measured values taken from US8999942B2, “Polyol modified aminoglycoside-lipid conjugates” (University of Manitoba, priority 2010, dated 2015).

How the values were obtained:
[1] = tested on: methicillin-resistant Staphylococcus epidermidis (MRSE) CAN-ICU 61589; assay: MIC, broth macrodilution (CLSI), MRSE; format: cell-based; settings: methicillin-resistant S. epidermidis, footnote (ATCC 14990)
Protocol: (§1) All compounds were tested against American Type Culture Collection (ATCC) reference strains as well as clinical isolates from the Canadian Intensive Care Unit (CAN-ICU) study (Zhanel, et al., 2008). […] Antibacterial activity against Gram-positive and Gram-negative microorganisms was performed via broth macrodilution tests using CLSI methodology (Clinical and Laboratory Standards Institute, 2006). The minimum inhibitory concentration (MIC) in μg/mL of the aminoglycoside-derived amphiphilic polycarbamates and polyethers were determined using established methods (Clinical and Laboratory Standards Institute, 2006) and are shown in Tables 1 and 2, respectively.

[2] = tested on: Stenotrophomonas maltophilia (CAN-ICU 62585); assay: MIC, broth macrodilution (CLSI), S. maltophilia; format: cell-based; settings: S. maltophilia, footnote CAN-ICU 62584
Protocol: as §1

[3] = tested on: Streptococcus pneumoniae ATCC 49619; assay: MIC, broth macrodilution (CLSI), S. pneumoniae ATCC 49619; format: cell-based
Protocol: as §1

[4] = tested on: methicillin-resistant Staphylococcus aureus (MRSA) ATCC 33592; assay: MIC, broth macrodilution (CLSI), MRSA ATCC 33592; format: cell-based; settings: MRSA, methicillin-resistant S. aureus ATCC 33592
Protocol: as §1

[5] = tested on: P. aeruginosa (Gent-R) CAN-ICU 62308; assay: MIC, broth macrodilution (CLSI), P. aeruginosa CAN-ICU 62308; format: cell-based, Pseudomonas aeruginosa
Protocol: as §1

E. coli ATCC 25922 = assay: MIC, broth macrodilution (CLSI), E. coli ATCC 25922; format: cell-based
Protocol: as §1

[6] = tested on: Pseudomonas aeruginosa ATCC 27853; assay: MIC, broth macrodilution (CLSI), P. aeruginosa ATCC 27853; format: cell-based
Protocol: as §1

S. pneumoniae ATCC 13883 = assay: MIC, broth macrodilution (CLSI), S. pneumoniae ATCC 13883; format: cell-based
Protocol: as §1

[7] = tested on: E. coli (Gentamicin-resistant) CAN-ICU 61714; assay: MIC, broth macrodilution (CLSI), gentamicin-resistant E. coli; format: cell-based; settings: footnote ATCC 6174 (gentamicin resistant)
Protocol: as §1

[8] = tested on: Acinetobacter baumanni (CAN-ICU 63169); assay: MIC, broth macrodilution (CLSI), A. baumannii; format: cell-based; settings: A. baumannii CAN-ICU 63169
Protocol: as §1

[9] = tested on: S. epidermidis ATCC 14990; assay: MIC, broth macrodilution (CLSI), S. epidermidis; format: cell-based, Staphylococcus epidermidis; settings: footnote ATCC 1490
Protocol: as §1

[10] = tested on: E. coli (Amikacin MIC 32) CAN-ICU 63074; assay: MIC, broth macrodilution (CLSI), E. coli CAN-ICU 63074; format: cell-based
Protocol: as §1

S. aureus ATCC 29213 = assay: MIC, broth macrodilution (CLSI), S. aureus ATCC 29213; format: cell-based, Staphylococcus aureus
Protocol: as §1

Row | Compound | Minimal Inhibitory Concentration (MIC) [1] [µg/mL] | Minimal Inhibitory Concentration (MIC) [2] [µg/mL] | Minimal Inhibitory Concentration (MIC) [3] [µg/mL] | Minimal Inhibitory Concentration (MIC) [4] [µg/mL] | Minimal Inhibitory Concentration (MIC) [5] [µg/mL] | Minimal Inhibitory Concentration (MIC) (E. coli ATCC 25922) [µg/mL] | Minimal Inhibitory Concentration (MIC) [6] [µg/mL] | Minimal Inhibitory Concentration (MIC) (S. pneumoniae ATCC 13883) [µg/mL] | Minimal Inhibitory Concentration (MIC) [7] [µg/mL] | Minimal Inhibitory Concentration (MIC) [8] [µg/mL] | Minimal Inhibitory Concentration (MIC) [9] [µg/mL] | Minimal Inhibitory Concentration (MIC) [10] [µg/mL] | Minimal Inhibitory Concentration (MIC) (S. aureus ATCC 29213) [µg/mL]
1 | CN(C)c1ccc(NC(=O)OCC2OC(OC3C(OC(=O)Nc4ccc(N(C)C)cc4)C(N)CC(N)C3OC3OC(CN)C(OC(=O)Nc4ccc(N(C)C)cc4)C(OC(=O)Nc4ccc(N(C)C)cc4)C3N)C(OC(=O)Nc3ccc(N(C)C)cc3)C2OC2OC(CN)C(OC(=O)Nc3ccc(N(C)C)cc3)C(OC(=O)Nc3ccc(N(C)C)cc3)C2N)cc1.O=C(O)C(F)(F)F.O=C(O)C(F)(F)F.O=C(O)C(F)(F)F.O=C(O)C(F)(F)F.O=C(O)C(F)(F)F.O=C(O)C(F)(F)F.O=C(O)C(F)(F)F.O=C(O)C(F)(F)F.O=C(O)C(F)(F)F.O=C(O)C(F)(F)F.O=C(O)C(F)(F)F.O=C(O)C(F)(F)F.O=C(O)C(F)(F)F (centres unmarked) [Compound 4] | 8 | 256 | 32 | 16 | 128 | 128 | 128 | >256 | 128 | >256 | 8 | 64 | 16
2 | NCCC(OC(=O)Nc1ccccc1)C(=O)NC1CC(N)C(OC2OC(CN)C(OC(=O)Nc3ccccc3)C(OC(=O)Nc3ccccc3)C2OC(=O)Nc2ccccc2)C(OC(=O)Nc2ccccc2)C1OC1OC(COC(=O)Nc2ccccc2)C(OC(=O)Nc2ccccc2)C(N)C1OC(=O)Nc1ccccc1.O=C(O)C(F)(F)F.O=C(O)C(F)(F)F.O=C(O)C(F)(F)F.O=C(O)C(F)(F)F (centres unmarked) [Compound 8] | 2 | 128 | 32 | 16 | 256 | 256 | >256 | 256 | 256 | 256 | 2 | 256 | 8
3 | NC[C@@H]1O[C@H](O[C@H]2[C@@H](O)[C@H](O[C@@H]3[C@@H](O)[C@H](N)C[C@H](N)[C@H]3O[C@H]3O[C@H](CN)[C@@H](O)[C@H](O)[C@H]3N)O[C@@H]2CO)[C@H](N)[C@@H](O)[C@@H]1O [Neomycin B, reference compound] | 0.5 | >512 | 32 | 256 | 512 | 4 | 512 | 1 | 8 | 64 | 0.25 | – | 1
4 | CC(C)(C)c1ccc(COCC2OC(OC3C(OCc4ccc(C(C)(C)C)cc4)C(N)CC(N)C3OC3OC(CN)C(OCc4ccc(C(C)(C)C)cc4)C(OCc4ccc(C(C)(C)C)cc4)C3N)C(OCc3ccc(C(C)(C)C)cc3)C2OC2OC(CN)C(OCc3ccc(C(C)(C)C)cc3)C(OCc3ccc(C(C)(C)C)cc3)C2N)cc1.O=C(O)C(F)(F)F.O=C(O)C(F)(F)F.O=C(O)C(F)(F)F.O=C(O)C(F)(F)F.O=C(O)C(F)(F)F.O=C(O)C(F)(F)F (centres unmarked) [Compound 13] | 64 | >128 | 256 | 128 | 128 | 128 | 256 | >128 | 128 | >128 | 64 | 128 | 128
5 | NCCC(OCc1ccccc1)C(=O)NC1CC(N)C(OC2OC(CN)C(OCc3ccccc3)C(OCc3ccccc3)C2OCc2ccccc2)C(OCc2ccccc2)C1OC1OC(COCc2ccccc2)C(OCc2ccccc2)C(N)C1OCc1ccccc1.O=C(O)C(F)(F)F.O=C(O)C(F)(F)F.O=C(O)C(F)(F)F.O=C(O)C(F)(F)F (centres unmarked) [Compound 18] | 1 | 32 | 32 | 4 | 64 | 16 | 128 | 16 | 16 | 32 | 1 | 16 | 4
6 | Gentamicin [reference compound] | 32 | >512 | 4 | 2 | 128 | 1 | 8 | 0.25 | 128 | 128 | 0.25 | 8 | 1
7 | NC[C@H]1O[C@H](O[C@H]2[C@H](O)[C@@H](O[C@H]3O[C@H](CO)[C@@H](O)[C@H](N)[C@H]3O)[C@H](N)C[C@@H]2N)[C@H](O)[C@@H](O)[C@@H]1O [Kanamycin A, reference compound] | 128 | >512 | 8 | >512 | >512 | 8 | >512 | 1 | 16 | 32 | 2 | 32 | 4
8 | NCC1OC(OC2C(N)CC(N)C(OC(=O)Nc3ccccc3)C2OC(=O)Nc2ccccc2)C(N)C(OC(=O)Nc2ccccc2)C1OC(=O)Nc1ccccc1.O=C(O)C(F)(F)F.O=C(O)C(F)(F)F.O=C(O)C(F)(F)F.O=C(O)C(F)(F)F (centres unmarked) [Compound 10] | 8 | 64 | >256 | 16 | 128 | 32 | 128 | 64 | 32 | 256 | 8 | 32 | 16
9 | NCC1OC(OC2C(N)CC(N)C(OCc3ccc(Cl)cc3)C2OC2OC(COCc3ccc(Cl)cc3)C(OC3OC(CN)C(OCc4ccc(Cl)cc4)C(OCc4ccc(Cl)cc4)C3N)C2OCc2ccc(Cl)cc2)C(N)C(OCc2ccc(Cl)cc2)C1OCc1ccc(Cl)cc1.O=C(O)C(F)(F)F.O=C(O)C(F)(F)F.O=C(O)C(F)(F)F.O=C(O)C(F)(F)F.O=C(O)C(F)(F)F.O=C(O)C(F)(F)F (centres unmarked) [Compound 12] | 64 | >128 | 128 | 64 | >128 | 128 | >128 | 128 | >128 | >128 | 32 | 64 | 64
